In US12325692B2, “Uses of doxadiazines compounds” (HORITZONTS TECNOLOGICS HUNGARY KORLÁTOLT FELELOSSÉGU …, priority 2019, dated 2025):

What was measured:
[1] = Total antioxidant activity assay (DPPH free radical, cell-free); assay type: biochemical; conditions: Trolox 200 μM as positive control
Method: FIG. 2. Antioxidant activity of compound. The percentage of antioxidant activity of each extract was assessed by DPPH free radical assay and compared to the standard Trolox (92.08% of antioxidant activity).
Total antioxidant activity assay. […] DPPH (1,1-Diphenyl-2-picrylhydrazine) is a purple coloured stable free radical that is reduced to the yellow-coloured diphenylpicrylhydrazine. In a volume of 1 mL of methanol the test samples are mixed with DPPH 0.125 mM. Trolox (200 μM) is included as a positive control. After 30 min of incubation at room temperature in the dark the absorbance measurements are read at 517 nm using Thermo Scientific Genesys 10 uv scanning spectrophotometer. Lower absorbance of the reaction mixtures indicated higher free radical-scavenging activity. DPPH radical-scavenging activity is calculated according to the following formula: % Antioxidant activity=[(AC−AS)/AC]×100
Where Ac (control) is the absorbance of the control reaction (DPPH) and As (sample) is the absorbance of DPPH and sample.

TNF-α [2] = experiment: TNF-α activity assay (ELISA) in NIH/3T3 cells; assay type: cell-based; conditions: NIH/3T3 cell; read-out: inhibition of TNF-α production IC50
Method: (§1) FIG. 4. Inhibition of TNF-α production in THP-1 and NIH/3T3 cells.
(§2) TNF-α activity assays. The protein expression levels of TNF-α were measured by using an enzyme-linked immunosorbent assay (ELISA) kit according to the manufacturer's instructions (Diaclone). Absorbance was read at 450 nm on a spectrophotometric ELISA plate reader (Anthos 2020, Version 2.0.5, Biochrom Ltd., UK). The percentage of TNF-α inhibition was calculated from the ratio between the observed TNF-α amount secreted by treated cells (nM) and the baseline secretion of TNF-α (nM). Dexamethasone (Sigma-Aldrich; 50-02-2), was used as positive control (0.01 μM). Results were normalized to the solvent control DMSO (0.1%).

NF-ηB [3] = experiment: NF-ηB activity assay (KBF-Luc luciferase reporter) in NIH/3T3 cells; assay type: cell-based; conditions: Mus musculus, NIH3T3; NIH/3T3 cell; read-out: inhibition of NF-ηB production IC50
Method: (§3) FIG. 5. Inhibition of NF-ηB production in THP-1 and NIH/3T3 cells.
(§4) NF-ηB activity assays. The NIH/3T3-KBF-Luc cells has been stably transfected with the plasmid KBF-Luc plasmid, which contains three copies of NF-ηB binding site (from major histocompatibility complex promoter), fused to a minimal simian virus 40 promoter driving the luciferase gene. Cells (1×10^4 for NIH/3T3-KBF-Luc) are seeded the day before the assay on 96-well plate. Then the cells are treated with the test substances for 15 min and then stimulated with 30 ng/mL TNF-α. After 6 h, the cells are washed twice with PBS and lysed in 50 μL lysis buffer containing 25 mM Tris-phosphate (pH 7.8), 8 mM MgCl2, 1 mM DTT, 1% Triton X-100, and 7% glycerol during 15 min at RT in a horizontal shaker. Luciferase activity is measured using a GloMax 96 microplate luminometer (Promega) following the instructions of the luciferase assay kit (Promega, Madison, WI, USA). The RLU is calculated and the results are expressed as percentage of inhibition of NF-ηB activity induced by TNF-α (100% activation). The experiments for each concentration of the test items will be done in triplicate wells.

tyrosinase = molecular target: T1, tyrosinase (Mus musculus, UniProt P11344); experiment: Tyrosinase activity assay in B16-F10 melanoma cells; assay type: cell-based; conditions: 72 h treatment, read-out: inhibition of melanin synthesis (tyrosinase activity assay) IC50
T1 construct: To measure the tyrosinase activity of the cells, the B16-F10 cells treated for 3 days; endogenous in cells; host or cells: B16-F10 melanoma cells
T1 sequence (P11344 19-533): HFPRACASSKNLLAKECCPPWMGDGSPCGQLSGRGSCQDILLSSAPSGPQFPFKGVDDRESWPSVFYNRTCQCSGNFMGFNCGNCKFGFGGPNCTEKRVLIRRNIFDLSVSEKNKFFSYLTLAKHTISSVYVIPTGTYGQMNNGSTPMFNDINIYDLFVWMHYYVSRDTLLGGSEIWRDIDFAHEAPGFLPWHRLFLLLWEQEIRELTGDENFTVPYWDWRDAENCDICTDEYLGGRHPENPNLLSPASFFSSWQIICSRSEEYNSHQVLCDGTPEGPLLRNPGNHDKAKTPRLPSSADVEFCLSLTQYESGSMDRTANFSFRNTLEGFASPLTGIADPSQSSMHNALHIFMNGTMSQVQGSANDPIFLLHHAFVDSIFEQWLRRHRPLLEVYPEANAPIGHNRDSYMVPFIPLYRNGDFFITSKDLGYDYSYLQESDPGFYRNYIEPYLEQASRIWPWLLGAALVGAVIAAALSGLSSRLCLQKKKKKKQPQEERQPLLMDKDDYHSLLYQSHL
Method: FIG. 8. Effect of DOXA-1 and DOXA-2 on tyrosinase activity in B16-F10 melanoma cells. Tyrosinase activity assessment was performed as described in Methods. Briefly, cells were treated with the doses indicated of test substances or Kojic Acid as a positive control for 72 h. To determine the tyrosinase activity cells were lysed and the protein extracts were incubated with L-DOPA (a precursor of melanin) at 37° C. during 2 h and the activity was measured at 485 nm. Results are represented as percentage relative to untreated cells (control).
Tyrosinase activity assay. To measure the tyrosinase activity of the cells, the B16-F10 cells treated for 3 days with several doses of the compound is lysed by incubation at 4° C. for 30 min in lysis buffer (20 mM sodium phosphate, pH 6.8, 1% Triton X-100, 1 mM PMSF, 1 mM EDTA) containing protease inhibitors cocktail. The lysates are centrifuged at 15,000× g for 10 min to obtain the supernatant as the source of tyrosinase. The reaction mixture contained 20 mM phosphate buffer, pH 6.8, 1.25 mM L-DOPA (Sigma-Aldrich). After incubation at 37° C. for 2 h, dopachrome formation is monitored by measuring absorbance at a wavelength of 475 nm in a microplatereader (TECAN). Kojic acid 2 mM is used as a positive control.

THP-1 cells [4] = experiment: Cellular antioxidant activity assay (TBHP-induced ROS, DCFH-DA) in THP-1 cells; assay type: cell-based; conditions: Homo sapiens, THP-1 cell, 0.4 mM TBHP, read-out: antioxidant activity IC50 (TBHP-induced intracellular ROS)
Method: (§5) FIG. 3. Inhibition of TBHP-induced ROS production in THP-1 and NIH-3T3 cells. ROS production was evaluated by fluorescent probe DCFH-DA assay.
(§6) Cellular antioxidant activity assays. The intracellular accumulation of ROS is detected by fluorimetry using […] (DCFH-DA). The THP-1 cell (1×10^5 cells/well) are cultured in a 96-well black plate in DMEM supplemented with 10% FBS; culture medium is renewed when the cells reached 80% confluence. For inhibition, the cells are pre-incubated with the test substances for 30 min and treated with 0.4 mM Terc-butyl-hydroperoxide (TBHP). After 3 h the cells are incubated with 10 μM DCFH-DA in the culture medium at 37° C. for 30 min.
(§7) The acetate groups on DCFH-DA are removed by an intracellular esterase, trapping the probe inside the THP-1 cell. Then, the cells are washed with PBS at 37° C. and the production of ROS measured by changes in fluorescence due to the intracellular accumulation of DCF caused by the oxidation of DCFH. Intracellular ROS, as indicated by DCF fluorescence is detected using the Incucyte FLR software; the data are analyzed by the total green object integrated intensity (GCU×μm^2×well) of the imaging system IncuCyte HD (Essen BioScience).
(§8) In both cases the intracellular levels of ROS induced by TBHP are reduced (FIG. 3).

THP-1 cells [5] = experiment: Cytotoxic activity assay in THP-1 cells; assay type: cell-based; conditions: 48 h, at the tested concentrations
Method: FIG. 1. Cytotoxic activities of the compound in THP-1 cells. The cells were treated with the test substance at the indicated concentrations for 48 h.
Cytotoxic activity assays. THP-1 cell was seeded in 96-well plates at a density of 5×10^4 cells/well and NIH/3T3 cells were seeded in 96-well plates at a density of 5×10^3 cells/well both incubated overnight at 37° C. in a humidified atmosphere of 5% CO2. Subsequently, cells were treated with test compounds at the indicated concentrations and DMSO as control for […]. The test compounds were dissolved in DMSO (stock solution) and diluted with medium to a final DMSO concentration of 0.2%. MTT solution (50 μL, 7 mg/mL in PBS) was added to each well and plates were incubated for an additional 2 h. Next, the medium was removed and 100 μL of DMSO was added to each well to dissolve the formazan crystals that formed. The absorbance was measured at 590 nm using a spectrophotometric ELISA plate reader (SpectraMax® i3, Molecular Devices, CA, USA). Samples were considered nontoxic for the THP-1 and NIH/3T3 cell line when cell viability was ≥90%.
To analyse the cytotoxic activities of the test compound, THP-1 cells were incubated with DOXA-1 and DOXA-2 for 48 h and cytotoxicity was measured by fluorescence microscopy using an Incuyte microscope.

NF-ηB [6] = experiment: NF-ηB activity assay in THP-1 cells; assay type: cell-based; conditions: Homo sapiens; THP-1 cell; read-out: inhibition of NF-ηB production IC50
Method: as §3, §4

STAT3 = STAT3 activity assay (HeLa-STAT3-Luc luciferase reporter, IFNγ-induced); assay type: cell-based; conditions: HeLa-STAT3-Luc cells, IFNγ 25 U/mL, 6 h; read-out: inhibition of IFNγ-induced STAT3 activation IC50
Method: FIG. 6. DOXA-1 and DOXA-2 inhibits IFNγ-induced STAT3 activation. HeLa-STAT3-Luc cells (15×10^3 cells/mL) were preincubated with increasing concentrations of the compound and treated with IFNγ (25 U/mL) for 6 h. Luciferase activity was measured in the cell lysates with the luciferase assay kit (Promega, USA) and using a GloMax 96 microplate luminometer
STAT3 activity assay. The HeLa-STAT3-luc cells have been stably transfected with the plasmid 4×M67 pTATA TK-Luc. Cells (15×10^3 cells/mL) are seeded 96-well plate the day before the assay. Then the cells are treated with the compound for 15 min and then stimulated with IFN-γ 25 IU/mL. After 6 h, the cells are washed twice with PBS and lysed in 50 μL lysis buffer containing 25 mM Tris-phosphate (pH 7.8), 8 mM MgCl2, 1 mM DTT, 1% Triton X-100, and 7% glycerol during 15 min at RT in a horizontal shaker. Luciferase activity was measured using GloMax 96 microplate luminometer (Promega) following the instructions of the luciferase assay kit (Promega, Madison, WI, USA). The RLU is calculated and the results are expressed as percentage of inhibition of STAT3 activity induced by IFN-γ (100% activation). The experiments for each concentration of the test items will be done in triplicate wells.

NIH/3T3 cells = experiment: Cellular antioxidant activity assay (TBHP-induced ROS, DCFH-DA) in NIH/3T3 cells; assay type: cell-based; conditions: Mus musculus, NIH3T3, NIH/3T3 cell, read-out: antioxidant activity IC50 (TBHP-induced intracellular ROS)
Method: as §5, §6, §7, §8

TNF-α [7] = experiment: TNF-α activity assay (ELISA) in THP-1 cells; assay type: cell-based; conditions: THP-1 cell; read-out: inhibition of TNF-α production IC50
Method: as §1, §2

HIF-1α = HIF-1α activity assay (NIH/3T3-EPO-Luc luciferase reporter, DFX-induced); assay type: cell-based; conditions: 6 h, read-out: inhibition of DFX-induced activation of EPO-Luc (HIF-1α stabilization) IC50
Method: FIG. 7. Inhibitions the HIF-1α pathway. NIH/3T3-EPO-Luc cells (10×10^4 cells/mL) were preincubated with increasing concentrations of the compound or the hypoximimetic (Desferrioxamine) DFX for 6 h. Luciferase activity was measured in the cell lysates and results are represented as the percentage of inhibition considering 100% the value of DFX-induced HIF-1α pathway activation.
HIF-1α activity assay. The NIH/3T3-EPO-luc cells have been stably transfected with the plasmid Epo-Luc plasmid. The EPO-Hypoxia Response Element (HRE)-luciferase reporter plasmid contains three copies of the HRE consensus sequence from the promoter of the erythropoietin gene in the pGL3 vector. Cells (1×10^4 for NIH/3T3-EPO-luc) are seeded the day before the assay. The next day, the cells are stimulated either with the compound or Desferrioxamine (DFX) 150 μM as a positive control. After 6 hours of stimulation the cells are lysed in 25 mM Tris-phosphate pH 7.8, 8 mM MgCl2, 1 mM DTT, 1% Triton X-100, and 7% glycerol during 15 min at RT in a horizontal shaker. Luciferase activity is measured using a GloMax 96 microplate luminometer (Promega) following the instructions of the luciferase assay kit (Promega, Madison, WI, USA). The RLU is calculated and the results are expressed as percentage of inhibition induction/inhibition of EPO-luc activity. […]

Compound	percentage of antioxidant activity (DPPH), standard [1]	IC50 (TNF-α [2])	IC50 (NF-ηB [3])	IC50 (tyrosinase)	IC50 (THP-1 cells [4])	cytotoxicity against THP-1 cell (THP-1 cells [5])	IC50 (NF-ηB [6])	IC50 (STAT3)	IC50 (NIH/3T3 cells)	IC50 (TNF-α [7])	IC50 (HIF-1α)
Cc1c(C)c2c(c(C)c1O)CCC(C)(C(=O)O)O2 (stereo not drawn) [Trolox, reference compound]	92.08%	–	–	–	–	–	–	–	–	–	–
CCCCCC1=NN(C(=O)CCOC(=O)CCC(=O)O)OC(CCCCC)C1 (stereo not drawn) [DOXA-1, Doxadiazine-1]	–	17.4 nM	67.7 nM	18 nM	8.15 nM	no cytotoxicity	63.6 nM	3.09 nM	3330 nM	32.5 nM	12.4 nM
CCCCCC1=NN(C(=O)CCOC(C)=O)OC(CCCCC)C1 (stereo not drawn) [DOXA-2, Doxadiazine-2]	–	1.58 nM	2.41 nM	8.64 nM	3.44 nM	no cytotoxicity	5.18 nM	0.14 nM	2.23 nM	3.47 nM	5.07 nM
